Assay results as given in US7910751B2, “Heterocyclidene acetamide derivative” (Mochida Pharmaceutical Co., Ltd., priority 2005, dated 2011).

Molecular target: T1, human TRPV1 (Homo sapiens, UniProt Q8NER1)
T1 construct: expressed in transfected cells; host or cells: CHO-K1
Assay: Measurement of capsaicin-induced Ca influx in human TRPV1 transformed CHO cell line using FDSS-6000
Assay type: cell-based
Conditions: concentration at which the capsaicin concentration-reaction curve is shifted two times to the right, human TRPV1 transformed CHO cells

T1 sequence (Q8NER1 whole entry): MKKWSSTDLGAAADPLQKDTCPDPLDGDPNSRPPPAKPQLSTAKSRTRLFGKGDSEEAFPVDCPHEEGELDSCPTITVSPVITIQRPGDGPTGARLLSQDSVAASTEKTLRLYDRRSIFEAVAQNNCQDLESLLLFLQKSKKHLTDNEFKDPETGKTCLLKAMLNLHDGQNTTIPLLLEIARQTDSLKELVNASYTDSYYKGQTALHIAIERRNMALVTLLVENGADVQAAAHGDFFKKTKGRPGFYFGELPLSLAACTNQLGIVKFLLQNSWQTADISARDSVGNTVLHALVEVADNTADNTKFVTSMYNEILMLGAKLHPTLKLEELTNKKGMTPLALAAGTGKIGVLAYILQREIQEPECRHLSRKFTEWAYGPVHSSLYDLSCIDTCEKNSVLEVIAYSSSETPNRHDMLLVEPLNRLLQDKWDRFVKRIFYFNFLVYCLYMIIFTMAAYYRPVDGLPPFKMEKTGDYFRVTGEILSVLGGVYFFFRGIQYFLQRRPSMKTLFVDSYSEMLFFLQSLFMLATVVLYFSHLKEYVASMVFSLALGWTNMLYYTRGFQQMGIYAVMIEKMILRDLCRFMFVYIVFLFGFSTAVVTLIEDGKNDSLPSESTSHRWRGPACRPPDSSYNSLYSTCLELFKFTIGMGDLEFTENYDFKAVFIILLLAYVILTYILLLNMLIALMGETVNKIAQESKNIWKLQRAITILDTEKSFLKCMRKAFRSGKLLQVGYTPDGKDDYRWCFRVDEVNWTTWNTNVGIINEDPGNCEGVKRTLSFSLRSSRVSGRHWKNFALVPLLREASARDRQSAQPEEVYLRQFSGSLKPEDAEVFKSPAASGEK

Row | SMILES | A2 VALUE
1 | O=C(/C=C1\CCCOc2cc(C(F)(F)F)ccc21)Nc1ccc2c(c1)C(=O)CC2 [Example 157, (E)-2-(8-trifluoromethyl-3,4-dihydrobenzo[b]oxepin-5(2H)-ylidene)-N-(indan-1-on-6-yl)acetamide] | A (compounds of the present invention having an A2 value of less than 100 nM are represented by A)
2 | CCCCC(=O)N1CCC/C(=C\C(=O)Nc2ccc3cccnc3c2)c2ccc(C(F)(F)F)cc21 [Example 192, (E)-2-(1-pentanoyl-8-trifluoromethyl-1,2,3,4-tetrahydro-5H-benzo[b]azepin-5-ylidene)-N-(quinolin-7-yl)acetamide] | A (compounds of the present invention having an A2 value of less than 100 nM are represented by A)
3 | CC(=O)OC1CCc2c(NC(=O)/C=C3\CCCOc4cc(C(F)(F)F)ccc43)cccc21 (centres unmarked) [Example 161, (E)-2-(8-trifluoromethyl-3,4-dihydrobenzo[b]oxepin-5(2H)-ylidene)-N-(indan-1-acetoxy-4-yl)acetamide] | B (compounds having an A2 value of 100 nM or more are represented by B)
4 | O=C(/C=C1\CCN(C(=O)C2CC2)c2cc(C(F)(F)F)ccc21)Nc1ccc2cccnc2c1 [Example 99, (E)-2-(7-trifluoromethyl-2,3-dihydro-1-cyclopropanecarbonylquinolin-4(1H)-ylidene)-N-(quinolin-7-yl)acetamide] | A (compounds of the present invention having an A2 value of less than 100 nM are represented by A)
5 | O=C(/C=C1\CCOc2cc(C(F)(F)F)ccc21)Nc1cccc2cnccc12 [Example 7, (E)-2-(7-trifluoromethyl-chroman-4-ylidene)-N-(isoquinolin-5-yl)acetamide] | A (compounds of the present invention having an A2 value of less than 100 nM are represented by A)
6 | Cc1ccc(S(=O)(=O)N2CCC/C(=C\C(=O)Nc3ccc4cccnc4c3)c3ccc(C(F)(F)F)cc32)cc1 [Example 194, (E)-2-(1-(4-methylbenzenesulfonyl)-8-trifluoromethyl-1,2,3,4-tetrahydro-5H-benzo[b]azepin-5-ylidene)-N-(quinolin-7-yl)acetamide] | B (compounds having an A2 value of 100 nM or more are represented by B)
7 | O=C(/C=C1\CCCOc2cc(C(F)(F)F)ccc21)Nc1ccc2c(c1)N(CCO)CCO2 [Example 233] | A (compounds of the present invention having an A2 value of less than 100 nM are represented by A)
8 | Cn1ccc2cc(NC(=O)/C=C3\CCCOc4cc(C(F)(F)F)ccc43)ccc21 [Example 149, (E)-2-(8-trifluoromethyl-3,4-dihydrobenzo[b]oxepin-5(2H)-ylidene)-N-(1-methylindol-5-yl)acetamide] | A (compounds of the present invention having an A2 value of less than 100 nM are represented by A)
9 | O=C(/C=C1\CCN(C(=O)c2ccccc2)c2cc(C(F)(F)F)ccc21)Nc1ccc2cccnc2c1 [Example 54, (E)-2-(7-trifluoromethyl-2,3-dihydro-1-benzoylquinolin-4(1H)-ylidene)-N-(quinolin-7-yl)acetamide] | A (compounds of the present invention having an A2 value of less than 100 nM are represented by A)
10 | O=C(/C=C1\CCCOc2cc(C(F)(F)F)ccc21)NCc1ccc2c(c1)OCCO2 [Example 32, (E)-2-(8-trifluoromethyl-3,4-dihydrobenzo[b]oxepin-5(2H)-ylidene)-N-((2,3-dihydrobenzo[b][1,4]dioxin-6-yl)methyl)acetamide] | B (compounds having an A2 value of 100 nM or more are represented by B)
11 | Cc1cc(=O)oc2cc(NC(=O)/C=C3\CCCOc4cc(C(F)(F)F)ccc43)ccc12 [Example 21, (E)-2-(8-trifluoromethyl-3,4-dihydrobenzo[b]oxepin-5(2H)-ylidene)-N-(4-methyl-2-oxo-2H-chromen-7-yl)acetamide] | B (compounds having an A2 value of 100 nM or more are represented by B)
